{"source": "patent US10793522B2", "about": "“Sulfonamides as inhibitors of the uptake of extracellular citrate” (Boehringer Ingelheim International GmbH, priority 2016, dated 2020)", "target": "T1, human GlyT2 (Homo sapiens, UniProt Q9Y345)", "T1 construct": "host or cells: HEK293 (HEK293-hGlyT2), cDNA sub-cloned into pcDNA3.1zeo", "T1 sequence (Q9Y345 1-797)": "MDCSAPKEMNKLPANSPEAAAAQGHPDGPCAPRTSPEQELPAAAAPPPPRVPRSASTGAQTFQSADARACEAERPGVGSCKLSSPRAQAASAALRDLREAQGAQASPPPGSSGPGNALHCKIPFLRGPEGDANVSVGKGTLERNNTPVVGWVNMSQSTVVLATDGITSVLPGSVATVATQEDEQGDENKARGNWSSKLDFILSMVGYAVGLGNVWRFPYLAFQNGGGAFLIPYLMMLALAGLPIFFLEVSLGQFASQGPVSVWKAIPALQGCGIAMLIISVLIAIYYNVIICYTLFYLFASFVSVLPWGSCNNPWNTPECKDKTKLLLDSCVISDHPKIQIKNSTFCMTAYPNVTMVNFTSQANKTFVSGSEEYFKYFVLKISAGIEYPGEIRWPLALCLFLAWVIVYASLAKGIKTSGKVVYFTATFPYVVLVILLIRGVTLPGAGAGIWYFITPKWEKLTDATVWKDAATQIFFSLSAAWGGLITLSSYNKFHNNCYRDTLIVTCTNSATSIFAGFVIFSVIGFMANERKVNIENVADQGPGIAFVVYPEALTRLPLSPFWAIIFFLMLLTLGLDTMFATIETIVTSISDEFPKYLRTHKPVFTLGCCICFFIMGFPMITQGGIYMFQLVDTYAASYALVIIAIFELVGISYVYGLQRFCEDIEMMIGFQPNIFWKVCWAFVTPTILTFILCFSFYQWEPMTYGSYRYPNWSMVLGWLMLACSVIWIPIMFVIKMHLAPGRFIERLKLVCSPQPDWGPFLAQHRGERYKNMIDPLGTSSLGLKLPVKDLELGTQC", "test": "Recombinant human GlyT2/3H-glycine uptake assay", "type": "cell-based", "settings": "HEK293 cells over-expressing human GlyT2; Cytostar-T; 3H-glycine 100 nM; 2 hours", "description": "(6) Recombinant Human GlyT2/^3H-Glycine Uptake Assay\nThe human embryonic kidney 293 cell clone (HEK293-hGlyT2) over-expressing the human GlyT2 transporter was generated (the plasmid pCMV6-XL5-hGlyT2 containing the cDNA coding for the human GlyT2 transporter was obtained from Origene, the cDNA for GlyT2 was taken from this plasmid and sub-cloned into pcDNA3.1zeo from Invitrogen).\nHuman embryonic kidney 293 (HEK 293) cells are used that stably over-express the human GlyT2 […] which is responsible for the uptake of glycine into these cells.\nThe uptake of ^3H-glycine into the HEK 293 hGlyT2 cells is monitored using the Cytostar-T assay. This assay format is based on the imported radioactive glycine brought into proximity with the scintillant contained within the base of the plate by virtue of the biological processes within the cells. The radioactive decay is converted to a light signal based on the integration of the scintillation matrix into the assay plate.\nMethod: ^3H-Glycine Uptake Assay\nThe hGlyT2 over-expressing HEK 293 cells are cultivated in cell culture medium (DMEM+10% fetal calf serum+100 μg/mL Zeocin). For the assay, the medium of the 90% confluent cultures is removed and the cells are washed with DPBS. The cells are detached by the addition of 2 mL AccuMax and resuspended in 10 mL culture medium. The cell suspension is centrifuged at 1000 U/min for 5 min, the supernatant is removed and cells resuspended in expression medium (MEM (medium without glycine)+10% fetal calf serum) without glycine to 200,000 cells/mL and distributed into the Cytostar-T Scintillating 96-well Microplates (40,000 cells/well; 200 μl/well). The lid covered MTPs are then incubated for 24 hours at 37° C.; 5% CO2.\nThe following day, the cell plates are washed once with 200 μL HBSS/Ala buffer (HBSS 10× (+Ca, +Mg) with 5 mM Alanine adjusted to pH 7.4 with NaOH) following a 1 h incubation at 37° C.; 5% CO2, and subsequently 100 μL/well of HBSS/Ala containing 1.2× the concentration of compound in 1.2% DMSO (test range final: 100 μM-100 nM) incubated for 20 min at 37° C. Following the addition of 20 μL/well ^3H-glycine in HBSS/Ala (final ^3H-glycine concentration 100 nM) and an incubation for 2 hours at 37° C., the assay plate is placed into the Topcount NXT HTS and the signal is recorded.\nThe IC50 values of the compounds are calculated in IDBS XLfit by sigmoidal dose-response (variable slope).", "data": [{"smiles": "Cc1cc(Br)cc(S(=O)(=O)N2CCC(C(=O)NCc3ccccn3)CC2)c1", "note": "[(I-61)]", "values": [{"measurement": "IC50", "result": "> 100", "unit": "µM"}]}, {"smiles": "O=C(NCc1ccccn1)C1CCN(S(=O)(=O)c2cc(Cl)cc(Cl)c2)CC1", "note": "[(I-11)]", "values": [{"measurement": "IC50", "result": "> 100", "unit": "µM"}]}, {"smiles": "O=C(NCc1ccc(F)cc1)C1CCN(S(=O)(=O)c2cc(Cl)cc(Cl)c2)CC1", "note": "[(I-10)]", "values": [{"measurement": "IC50", "result": "> 100", "unit": "µM"}]}, {"smiles": "Cc1ccc(CNC(=O)C2CCN(S(=O)(=O)c3cc(Cl)cc(Cl)c3)CC2)nc1", "note": "[(I-15)]", "values": [{"measurement": "IC50", "result": "> 100", "unit": "µM"}]}, {"smiles": "CCOc1cc(Cl)cc(S(=O)(=O)N2CCC(C(=O)NCc3nccs3)CC2)c1", "note": "[(I-49)]", "values": [{"measurement": "IC50", "result": "> 100", "unit": "µM"}]}, {"smiles": "N#Cc1ccc(CNC(=O)C2CCN(S(=O)(=O)c3cc(Cl)cc(Cl)c3)CC2)cc1", "note": "[Example (I-1)]", "values": [{"measurement": "IC50", "result": "> 100", "unit": "µM"}]}, {"smiles": "O=C(NCc1ccccc1F)C1CCN(S(=O)(=O)c2cc(Cl)cc(Cl)c2)CC1", "note": "[(I-2)]", "values": [{"measurement": "IC50", "result": "> 100", "unit": "µM"}]}, {"smiles": "O=C(NCc1ccc(Cl)cc1)C1CCN(S(=O)(=O)c2cc(Cl)cc(Cl)c2)CC1", "note": "[(I-5)]", "values": [{"measurement": "IC50", "result": "> 100", "unit": "µM"}]}, {"smiles": "O=C(NCc1ccc(F)cn1)C1CCN(S(=O)(=O)c2cc(Cl)cc(Cl)c2)CC1", "note": "[(I-20)]", "values": [{"measurement": "IC50", "result": "> 70", "unit": "µM"}]}, {"smiles": "Cc1cnc(CNC(=O)C2CCN(S(=O)(=O)c3cc(Cl)cc(Cl)c3)CC2)s1", "note": "[(I-27)]", "values": [{"measurement": "IC50", "result": "> 100", "unit": "µM"}]}]}
